Test results from patent US5344846A, “Compositions and methods for inhibiting deoxyhypusine synthase and the growth of cells” (The United States of America as represented by the …, priority 1992, dated 1994).
“Also recorded” adds a separate entry of the source. Where two headings read alike, the source gives them in different places.

What was measured:
[1] = biological target: T1, deoxyhypusine synthase from rat testis (Rattus norvegicus, UniProt Q6AY53); experiment: Inhibition of deoxyhypusine synthase ([3H]deoxyhypusine formation from [3H]spermidine), IC50/Ki; type: biochemical; details: for relative inhibitory potency (in words): comparison with parent amine, bisguanylated counterpart or another inhibitor; for Ki: competitive vs spermidine
T1 construct: as catalyzed by deoxyhypusine synthase from rat testis; from tissue; host or cells: rat testis
T1 sequence (Q6AY53 1-369): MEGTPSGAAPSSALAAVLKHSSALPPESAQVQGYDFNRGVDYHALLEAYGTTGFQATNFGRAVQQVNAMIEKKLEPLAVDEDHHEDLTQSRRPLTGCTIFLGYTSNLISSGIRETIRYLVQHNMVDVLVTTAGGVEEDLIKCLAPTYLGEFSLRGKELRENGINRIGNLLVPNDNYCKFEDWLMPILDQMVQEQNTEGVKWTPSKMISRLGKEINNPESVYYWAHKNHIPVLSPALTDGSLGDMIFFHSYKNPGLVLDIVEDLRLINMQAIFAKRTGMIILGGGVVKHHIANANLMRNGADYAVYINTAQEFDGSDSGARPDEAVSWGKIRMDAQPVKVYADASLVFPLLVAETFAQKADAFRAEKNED
Method: The enzyme assay was performed as previously described (see Wolff et al. (1990) J. Biol. Chem. 265:4793-4799; and Park et al. (1991) J. Biol. Chem. 266:7988-7994). A typical assay mixture included 0.2M glycine, 1 mM dithiothreitol, 0.5 mM NAD^+, 2.4 micromolar (μM) [1,8-^3 H] spermidine, 1 μM ec-eIF-5A(Lys), 25 micrograms (μg) bovine serum albumin, and 3-15 units of enzyme in a total volume of 20 microliters (μl). Incubations were carried out at pH 9.3 and 37° C. for 1 hour. […] Percent inhibition was plotted versus log inhibitor concentration in order to obtain graphic estimates of IC50 values, i.e., the concentrations inhibiting [^3 H]deoxyhypusine production by 50%. The IC50 values reported in the tables were calculated by fitting the data points to equation 1 where x=% inhibition and I is the inhibitor concentration. [formula] The nature of the inhibition was determined by plotting reciprocal velocities of [^3 H]deoxyhypusine production against reciprocals of [^3 H]spermidine concentrations at a constant fixed level of ec-eIF-5A(Lys) (1 μM) and at set inhibitor concentrations. […] Estimates of Ki values were made by fitting the data to equation 2; wherein v is the velocity of the reaction, V is the maximum velocity, S is the substrate concentration, Km is Michaeli's constant, Ki is the inhibition constant, and I is the inhibitor concentration. [formula] All fits were performed by means of an interactive curve-fitting program, MLAB, developed and modified at the National Institutes of Health to run on an IBM personal computer.

[2] = biological target: T2, deoxyhypusine synthase (Rattus norvegicus, UniProt Q6AY53); details: earlier publications, cited from earlier work
T2 construct: full-length homotetramer; substrate was human eIF-5A precursor expressed in E. coli
T2 sequence (Q6AY53 1-369): T1 sequence (Q6AY53 1-369)

[3] = system: deoxyhypusine synthase from HTC cells; details: cited from earlier work; for inhibition of deoxyhypusine synthase: 20 μM inhibitor, 1 μM spermidine, precursor from DFMO-treated HTC cells
[4] = cited from earlier work
[5] = pH 9.3, 37° C., 1 hour, 2.4 μM [3H]spermidine

In the case of `N=C(N)NCCCCCCCCN` [Compound 50, N^1-guanyl-1,8-diaminooctane], the “relative inhibitory potency (in words)” value [1] is reported as “far exceeding the parent amines, as well as their bisguanylated counterparts, in inhibitory potency; also recorded: uniformly more efficient inhibition” and the “inhibition of deoxyhypusine synthase (in words)” value (“inhibition … (in words)” for short) [1, 5] is reported as “excellent inhibitors”.
In the case of `N=C(N)NCCCN` [Compound 46, N^1-guanyl-1,3-diaminopropane], the “inhibition … (in words)” value [1, 5] is reported as “without inhibitory property; also recorded: no inhibition was detected”.
For `NCCCNCCCN` [Compound 9, caldine], the “inhibition … (in words)” value ([1]; pH 9.3) is given as “some degree of inhibition”, the “substrate or cofactor function for deoxyhypusine synthase” value (“substrate or cofactor function” for short) ([2]; listed as caldine) is given as “no detectable substrate property” and the “substrate or cofactor function” value ([2]; listed as compound 9) is given as “fails to serve as a substrate”.
For `CC(C)(CCCN)NCCCN` [Compound 34, 5,5-dimethylspermidine], the “inhibition … (in words)” value [1, 5] was “abolished inhibition; also recorded: failure to inhibit the enzyme”.
For `NCCCNCC(F)(F)CCN` [Compound 37, 6,6-difluorospermidine], the “inhibition … (in words)” value [1, 5] is given as “quite strong inhibitors; also recorded: effective inhibition; also recorded: act as inhibitors”, the “inhibition of deoxyhypusine synthase” value [3] is given as 90% and the “Ki (in words)” value ([3]; HTC cell enzyme) is given as “very close to that for 1,3-diaminopropane and to the Km value for spermidine”. The “pKa of N1-amino group” value [4] was 10.34 and the “pKa of N8-amino group” value [4] was 9.29.
In the case of `c1ccc(CNCCCCCCCCNCc2ccccc2)cc1` [Compound 25, N,N'-bis-benzyl-1,8-diaminooctane], the “inhibition … (in words)” value [1, 5] is reported as “loss in binding”.
In the case of `N=C(N)NCCCCN` [Compound 47, agmatine], the “inhibition … (in words)” value [1, 5] is reported as “moderate degree of inhibition; also recorded: mild degree of inhibition”.
For `N=C(N)NCCCCCCCN` [Compound 49, N^1-guanyl-1,7-diaminoheptane], the “relative inhibitory potency (in words)” value [1] was “far exceeding the parent amines, as well as their bisguanylated counterparts, in inhibitory potency; also recorded: strongest inhibition of the compounds tested; also recorded: uniformly more efficient inhibition”, the Ki [1] was 9.7 nM and the “inhibition … (in words)” value [1, 5] was “excellent inhibitors”. The “Ki, fold less than the apparent Km for spermidine” value ([1]; vs apparent Km for spermidine (4.5±0.7 μM)) was “about 450 fold”.
In the case of `NCCCCCCN` [Compound 5, 1,6-diaminohexane], the “inhibition … (in words)” value [1, 5] is reported as “displays inhibition”.
With `NCCCN[C@H]1CC[C@H](N)CC1` [Compound 33, N-(3-aminopropyl)-1,4-diaminocyclohexane] the “inhibition … (in words)” value [1, 5] was “failure to inhibit the enzyme”.
With `N=C(N)NCCCCCCCCNC(=N)N` [Compound 43, N^1,N^8-bisguanyl-1,8-diaminooctane] the “relative inhibitory potency (in words)” value [1] was “somewhat stronger an inhibitor than guazatine (compound 40), showed no better inhibition than the parent diamine, 1,8-diaminooctane (compound 7); also recorded: inhibition not widely different from its parent amine” and the “inhibition … (in words)” value [1, 5] was “acted as inhibitors of deoxyhypusine synthase”.
In the case of `NCCCCCCCN` [Compound 6, 1,7-diaminoheptane], the “inhibition … (in words)” value [1, 5] is reported as “strong inhibition”.
With `NCCCN1CCC(CN)CC1` [Compound 31, 1-(3-Aminopropyl)-4-aminomethylpiperidine] the “inhibition … (in words)” value [1, 5] was “failure to inhibit the enzyme”.
In the case of `NCCCCCCCCN` [Compound 7, 1,8-diaminooctane], the “inhibition … (in words)” value [1, 5] is reported as “strong inhibition”.
With `N=C(N)NCCCNCCCN` [Compound 48, N^1 -guanylcaldine] the “relative inhibitory potency (in words)” value [1] was “far exceeding the parent amines, as well as their bisguanylated counterparts, in inhibitory potency; also recorded: uniformly more efficient inhibition” and the “inhibition … (in words)” value [1, 5] was “excellent inhibitors”.
For `NCCCNCCC(F)CN` (stereo not shown) [7-monofluorospermidine], the “inhibition of deoxyhypusine synthase” value [3] is listed as 35%.
With `N=C(N)NCCCCCCCNC(=N)N` [Compound 42, N^1,N^7-bisguanyl-1,7-diaminoheptane] the “relative inhibitory potency (in words)” value [1] was “inhibition not widely different from its parent amine”, the Ki [1] was 1200 nM and the “inhibition … (in words)” value [1, 5] was “acted as inhibitors of deoxyhypusine synthase”.
For `NCCCC[C@H](N)C(=O)O` [free lysine, lysine], the “substrate or cofactor function” value [2] is listed as “Neither free lysine nor synthetic 9- or 16-member peptides modeled on the amino acid sequence encompassing the lysine residue in eIF-5A precursors that undergoes modification to hypusine, function as substrates”.
In the case of `NC(=O)c1ccc[n+]([C@@H]2O[C@H](COP(=O)([O-])OP(=O)(O)OC[C@H]3O[C@@H](n4cnc5c(N)ncnc54)[C@H](OP(=O)(O)O)[C@@H]3O)[C@@H](O)[C@H]2O)c1` [NADP^+], the “substrate or cofactor function” value [2] is given as “negligible”.
In the case of `NCCCN[C@H]1CC[C@@H](N)CC1` [Compound 32, N-(3-aminopropyl)-1,4-diaminocyclohexane], the “inhibition … (in words)” value [1, 5] is reported as “failure to inhibit the enzyme”.
In the case of `NCCCNCCCON` [Compound 39, N-(3-aminooxypropyl)-1,3-diaminopropane], the “inhibition … (in words)” value [1, 5] is given as “without effect; also recorded: does not function as an inhibitor” and the “pKa of aminooxy group” value ([4]; aminooxy group) is given as 4.5-5.0.
With `NCCCNCCCCNCCCN` [Compound 12, spermine] the “inhibition … (in words)” value ([1]; pH 9.3) was “failure”.
In the case of `NC(=O)C1=CN([C@@H]2O[C@H](COP(=O)(O)OP(=O)(O)OC[C@H]3O[C@@H](n4cnc5c(N)ncnc54)[C@H](O)[C@@H]3O)[C@@H](O)[C@H]2O)C=CC1` [NADH], the “substrate or cofactor function” value [2] is listed as “negligible”.
In the case of `NCCCN` [Compound 2, 1,3-diaminopropane], the “inhibition … (in words)” value ([1]; pH 9.3, 37° C., 1 hour, 2.4 μM [3H]spermidine, listed as 1,3-diaminopropane) is reported as “inhibit”, the “inhibition … (in words)” value ([1]; pH 9.3, 37° C., 1 hour, 2.4 μM [3H]spermidine, listed as compound 2) is reported as “exerts product inhibition; also recorded: inhibit the enzyme” and the “type of inhibition (kinetics)” value ([1]; varied [3H]spermidine, ec-eIF-5A(Lys) fixed at 1 μM) is reported as “competitive”.
With `NCCCCN` [Compound 3, putrescine] the “inhibition … (in words)” value ([1]; pH 9.3) was “inhibit the enzyme”.
For `NCCCCNCCCN` [Compound 10, spermidine], the “pKa of N1-amino group” value [4] is listed as 9.94 and the “pKa of N8-amino group” value [4] is listed as 10.81.
With `CC(N)CCNCCCCN` (stereo not shown) [Compound 35, 1-Methyl spermidine] the “inhibition … (in words)” value [1, 5] was “Some degree of inhibition”.
In the case of `N=C(N)NCCCCCCNC(=N)N` [Compound 41, N^1,N^6-bisguanyl-1,6-diaminohexane], the “relative inhibitory potency (in words)” value [1] is reported as “inhibition not widely different from its parent amine” and the “inhibition … (in words)” value [1, 5] is reported as “acted as inhibitors of deoxyhypusine synthase”.
With `CCCCCCCCN` [Compound 13] the “inhibition … (in words)” value [1, 5] was “does not appear to interact to any significant extent”.
With `NCCCCCN` [Compound 4, cadaverine] the “inhibition … (in words)” value [1, 5] was “does not”.
For `N=C(N)NCCCNCCCNC(=N)N` [Compound 45, N^1,N^7 -bisguanyl caldine], the “relative inhibitory potency (in words)” value [1] was “inhibition not widely different from its parent amine”, the “inhibition … (in words)” value [1, 5] was “somewhat reduced inhibition” and the “increase in IC50 by bisguanylation” value ([1]; vs parent caldine (45 vs 9)) was 5 fold.
For “altered eIF-5A precursor protein, in which Lys^50 is replaced by Arg: altered eIF-5A precursor protein, in which Lys^50 is replaced by Arg”, the “substrate or cofactor function” value [2] is listed as “is not”.
In the case of `NCCCCCNCCCN` [Compound 11, N-(3-aminopropyl)cadaverine], the “inhibition … (in words)” value [1, 5] is given as “some degree of inhibition”, the “substrate or cofactor function” value ([2]; listed as N-(3-aminopropyl)cadaverine) is given as “function as a substrate for deoxyhypusine synthase, albeit a poor one; also recorded: acts as a substrate” and the “substrate or cofactor function” value ([2]; listed as compound 11) is given as “functions as a substrate, albeit a poor one”.
With `CN(CCCN)CCCN` [Compound 30, N^4 -methylcaldine] the “inhibition … (in words)” value [1, 5] was “devoid of inhibitory activity; also recorded: do not interact with the active site of the enzyme”.
In the case of `N=C(N)NCCCNC(=N)N` [Compound 44, N^1,N^3-bisguanyl-1,3-diaminopropane], the “inhibition … (in words)” value [1, 5] is reported as “without inhibitory property; also recorded: no inhibition was detected”.
